Square brackets hold non-standard residues; d marks the D form. Ends that are not written are not given here. Peptide text beside a SMILES is read from it. hArg = N=C(N)NCCCC[C@H](N)C(=O)O; Nle = CCCC[C@H](N)C(=O)O; Aib = CC(C)(N)C(=O)O
Legend:
human P1R [1] = molecular target: T1, human P1R (Homo sapiens, UniProt Q03431); assay: cAMP stimulation in HKRK-B28 cells; assay type: cell-based; conditions: basal 4.0 ± 0.1 pmole/well not subtracted
T1 construct: expressed in transfected cells; host or cells: HKRK-B28 (porcine kidney LLC-PK1, stably transfected)
T1 sequence (Q03431 27-593): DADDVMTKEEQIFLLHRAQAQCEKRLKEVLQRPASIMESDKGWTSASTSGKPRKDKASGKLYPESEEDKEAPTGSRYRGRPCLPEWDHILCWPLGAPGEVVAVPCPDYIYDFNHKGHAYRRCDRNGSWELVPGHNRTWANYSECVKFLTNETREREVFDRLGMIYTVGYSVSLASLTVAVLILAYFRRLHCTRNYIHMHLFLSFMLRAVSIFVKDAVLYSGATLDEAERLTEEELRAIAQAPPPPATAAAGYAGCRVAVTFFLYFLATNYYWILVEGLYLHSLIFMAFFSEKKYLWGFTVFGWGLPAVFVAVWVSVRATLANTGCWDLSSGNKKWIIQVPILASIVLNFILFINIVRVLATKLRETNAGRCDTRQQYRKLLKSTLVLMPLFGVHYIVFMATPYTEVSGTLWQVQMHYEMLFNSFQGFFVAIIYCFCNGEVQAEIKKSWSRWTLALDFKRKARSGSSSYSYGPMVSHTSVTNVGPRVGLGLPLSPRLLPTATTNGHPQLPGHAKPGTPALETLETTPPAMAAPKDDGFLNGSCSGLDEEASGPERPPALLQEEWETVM

[2] = molecular target: T2, wild-type human P1R (hP1R-WT) (Homo sapiens, UniProt Q03431); assay: Competition binding in COS-7 cells expressing hP1R-WT; conditions: P1R-WT; Scatchard transformation of homologous competition binding; read-out: apparent equilibrium dissociation constant (KDapp)
T2 construct: expressed in transfected cells; host or cells: COS-7 (transient, FuGENE 6)
T2 sequence (Q03431 27-593): T1 sequence (Q03431 27-593)
Description: (§1) Cell Culture. The cell line HKRK-B28 (Takasu, H., et al., J. Bone Miner. Res. 14:11-20 (1999)) was derived from the porcine kidney cell line, LLC-PK1 by stable transfection with plasmid DNA encoding the human P1R and expresses ˜280,000 receptors per cell. These cells, as well as COS-7 cells and SaOS-2-B10 cells, were cultured at […] in T-75 flasks ([…]) in Dulbecco's modified Eagle's medium (DMEM) supplemented with fetal bovine serum (10%), penicillin G (20 units/ml), streptomycin sulfate (20 μg/ml) and amphotericin B (0.05 μg/ml) in a humidified atmosphere containing 5% CO2. Stock solutions of EGTA/trypsin and antibiotics were from GIBCO; fetal bovine serum was from Hyclone Laboratories (Logan, Utah). COS-7 cells sub-cultured in 24-well plates were transfected with plasmid DNA (200 ng per well) encoding the wild-type human P1R or truncated human P1R deleted for residues (24-181) (Shimizu, M., et al., J. Biol. Chem. 275:21836-21843 (2000)) that was purified by cesium chloride/ethidium bromide density gradient centrifugation, and FuGENE 6 transfection reagent (Roche Indianapolis Ind.) according to the manufacturer's recommended procedure. All cells, in 24-well plates, were treated with fresh media and shifted to 33° C. for 12 to 24 h prior to assay.
Competition Binding. Binding reactions were performed with HKRK-B28 cells or in COS-7 cells in 24-well plates. The cells were rinsed with 0.5 mL of binding buffer, and then treated successively with 100 μL binding buffer, 100 μL of binding buffer containing various amounts of unlabeled competitor ligand, and 100 μL of binding buffer containing ca. 100,000 cpm of ^125I-[M]PTH(1-21) or ^125I-[Aib^1,3,M]PTH(1-21)} (ca. 26 fmol; final volume=300 μL). Incubations were 4 to 6 h at 4° C., at which time near equilibrium conditions were attained. Cells were then placed on ice, the binding medium was removed, and the monolayer was rinsed three times with 0.5 mL of cold binding buffer. The cells were subsequently lysed with 0.5 mL […] and counted for radioactivity. For each tracer and in each experiment, the non-specific binding was determined as the radioactivity that bound in the presence of the same unlabeled peptide at a concentration of 1 μM, and was ˜1% of total radioactivity added for each tracer. The maximum specific binding (B0) was the total radioactivity bound in the absence of competing ligand, corrected for nonspecific binding, and for each tracer, ranged from 8% to 20% of the total radioactivity added. Nonlinear regression was used to calculate binding IC50 values (see below). Scatchard transformations of homologous competition binding data derived from studies with 26 fmol of ^125I-[Aib^1,3,M]PTH(1-21) were employed for estimations of apparent equilibrium dissociation constant (kDapps) and total number of ligand binding sites (Bmax), assuming a single class of binding sites and equal affinities of the iodinated and non iodinated ligand.
Data Calculation. Calculations were performed using Microsoft® Excel. Nonlinear regression analyses of binding and cAMP dose-response data were performed using the four-parameter equation: yp=Min+[(Max−Min)/(1+(IC50/x)^slope)]. […] Differences between paired data sets were statistically evaluated using a one-tailed Student's t-test, assuming unequal variances for the two sets. […]

[3] = molecular target: T2, wild-type human P1R (hP1R-WT); assay: cAMP stimulation in COS-7 cells expressing hP1R-WT; assay type: cell-based; conditions: hP1R-WT, basal 10.3 ± 1.1, asterisk = plateau not attained
Description: as §1
(§2) cAMP Stimulation. Stimulation of cells with peptide analogs was performed in 24-well plates. Cells were rinsed with 0.5 mL of binding buffer (50 mM Tris-HCI, […], 5 mM KCl, 2 mM CaCl2, 5% heat-inactivated horse serum, 0.5% fetal bovine serum, adjusted to pH 7.5 with HCl) and treated with 200 μL of cAMP assay buffer (Delbecco's modified Eagle's medium containing 2 mM 3-isobutyl-1-methylxanthine, 1 mg/mL bovine serum albumin, 35 mM Hepes-NaOH, pH 7.4) and 100 μL of binding buffer containing varying amounts of peptide analog (final volume=300 μL). The medium was removed after incubation for 30 to 60 minutes at room temperature, and the cells were frozen on dry ice, lysed with 0.5 mL 50 mM HCl, and refrozen ([…]). The cAMP content of the diluted lysate was determined by radioimmunoassay. The EC50 response values were calculated using nonlinear regression (see below).
(§3) Data Calculation. Calculations were performed using Microsoft® Excel. Nonlinear regression analyses of binding and cAMP dose-response data were performed using the four-parameter equation: yp=Min+[(Max−Min)/(1+(IC50/x)^slope)]. The Excel Solver function was utilized for parameter optimization, as described previously (Carter, P. H., et al., Endocrinology 140: 4972-4981 (1999); Bowen, W. P., and Jerman, J. C., Trends in Pharmacol. Sci. 16: 413-417 (1995)). Differences between paired data sets were statistically evaluated using a one-tailed Student's t-test, assuming unequal variances for the two sets.

[4] = molecular target: T3, P1R-delNt, truncated human P1R deleted for residues (24-181) (Homo sapiens, UniProt Q03431); assay: Competition binding in COS-7 cells expressing hP1R-delNt; conditions: COS-7 cells
T3 construct: expressed in transfected cells; host or cells: COS-7 (transient, FuGENE 6)
T3 sequence (Q03431 with tags, fused parts or gaps limits assumed): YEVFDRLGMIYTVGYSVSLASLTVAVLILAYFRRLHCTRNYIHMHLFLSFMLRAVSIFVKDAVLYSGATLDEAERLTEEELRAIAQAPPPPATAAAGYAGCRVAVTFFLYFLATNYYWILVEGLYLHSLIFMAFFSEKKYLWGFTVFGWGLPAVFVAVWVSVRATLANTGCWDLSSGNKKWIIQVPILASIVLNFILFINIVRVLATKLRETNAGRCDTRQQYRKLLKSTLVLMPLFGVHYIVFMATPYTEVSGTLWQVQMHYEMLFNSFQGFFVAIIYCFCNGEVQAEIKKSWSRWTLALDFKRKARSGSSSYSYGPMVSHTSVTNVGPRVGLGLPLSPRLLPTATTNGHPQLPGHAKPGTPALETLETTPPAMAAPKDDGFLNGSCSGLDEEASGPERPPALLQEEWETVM

[5] = molecular target: T3, P1R-delNt, truncated human P1R deleted for residues (24-181); assay: cAMP stimulation in COS-7 cells expressing hP1R-delNt; assay type: cell-based; conditions: hP1R-delNT, basal 9.5 ± 1.3, asterisk = plateau not attained
Description: as §1, §2, §3
The possibility that the activity-enhancing effects of the Aib substitutions at positions 1 and 3 were mediated through the juxtamembrane (J) region of the receptor was investigated in COS-7 cells transiently transfected with P1R-delNt. P1R-delNt was a truncated P1R that lacked most of the amino-terminal extracellular domain.

[6] = Circular dichroism spectroscopy (helical content); assay type: physicochemical
Description: Circular Dichroism. Circular Dichroism spectra were recorded on a Jasco model 710 spectropolarimeter; peptides were analyzed at a concentration of20 μM in 50 mM sodium phosphate buffer pH 7.4, or the same buffer containing 2,2,2-trifluoroethanol at 20% (v/v). Spectroscopic scans were preformed at 20° C. and at wavelengths between […], with data recored at each 1 nM interval. The spectral bandwidth was 1.5 nM and 8 scans were accumulated and averaged for each sample. At each wavelength, the mean residue elipticity [θ×100/l×C×n); where θ is the raw elipticity value (in dimensions of millidegree), l is the sample path length, C=is the molar peptide concentration, and n is the number of residues in the peptide (Bowen, W. P., and Jerman, J. C., Trends in Pharmacol. Sci. 16: 413-417 (1995)). The helical content of each peptide was estimated by dividing [θ] observed at 222 nM for that peptide by −28,100, which is the reported [θ]222obs for a model helical decapeptide (Bowen, W. P., and Jerman, J. C., Trends in Pharmacol. Sci. 16: 413-417 (1995)).
Circular dichroism (CD) spectroscopy was used to analyze the potential effects that the Aib substitutions had on peptide secondary structure when the peptides were free in solution. Samples were analyzed in both aqueous phosphate buffer and in phosphate buffer containing 2,2,2-trifloroethanol, an organic solvent which promotes helical structure in oligopeptides, including PTH peptide fragments (Pellegrini, M., et al., J. Biol. Chem. 273:10420-10427 (1998); Gronwald, W., et al., Biol. Chem. Hoppe Seyler 377:175-186 (1996); Barden, J. A., and Kemp, B. E., Biochemistry 32:7126-7132 (1993)). In phosphate buffer, the helical content of each peptide, estimated from the elipticity observed at 222 nM, was small (≦16%); however, [Aib^1,3,M]PTH(1-14) contained nearly twice as much helix as did [M]PTH(1-14) (16% and 8.1% respectively), as did [Aib^1,3,M]PTH(1-1l), as compared to […] (13% and 7.5% respectively, Table 4). […] The higher helical contents of these two peptides were evident not only from the negative elipticities at […] and 222 nM, but also from the positive elipticities at 192 nM (FIG. 6).

human P1R [7] = molecular target: T1, human P1R; conditions: HKRK-B28 cells; previously shown (Shimizu et al., Endocrinology 2001); read-out: cAMP EC50; cited from earlier work

Molecule | cAMP EMax(obs.) (human P1R [1]) | Kd [2] | cAMP EMax(obs.) [3] | affinity at P1R-delNt, fold weaker than at P1R-WT [4] | Binding IC50 ([4]; hP1R-delNT, tracer 125I-[Aib^1,3,M]PTH(1-21), N.B. = no inhibition of tracer binding) | cAMP EMax(obs.) [5] | [0]222obs × 10^−3, Phos. ([6]; 20 μM peptide, 50 mM phosphate buffer pH 7.4) | [0]222obs × 10^−3, Phos + TFE ([6]; 20 μM peptide, 50 mM phosphate buffer with trifluoroethanol (20%)) | helical residues (%), Phos + TFE ([6]; 50 mM phosphate buffer with trifluoroethanol (20%), from elipticity at 222 nM) | helical residues (%), Phos. ([6]; 50 mM phosphate buffer, from elipticity at 222 nM) | EC50 (human P1R [7])
CCCC[C@H](NC(=O)[C@H](CC(C)C)NC(=O)[C@H](CCC(N)=O)NC(=O)[C@@H](NC(=O)[C@H](CCC(=O)O)NC(=O)C(C)(C)NC(=O)[C@@H](NC(=O)C(C)(C)N)C(C)C)[C@@H](C)CC)C(=O)N[C@@H](Cc1c[nH]cn1)C(=O)N[C@@H](CCC(N)=O)C(=O)N[C@@H](CCCCNC(=N)N)C(=O)N[C@@H](C)C(=O)N[C@@H](CCCCN)C(=O)N[C@@H](Cc1c[nH]c2ccccc12)C(=O)N[C@@H](CC(C)C)C(=O)N[C@@H](C)C(=O)N[C@@H](CO)C(=O)N[C@H](C(=O)N[C@@H](CCCNC(=N)N)C(=O)N[C@@H](CCCNC(=N)N)C(=O)N[C@@H](Cc1ccc(O)cc1)C(N)=O)C(C)C [[Aib^1,3,M]PTH(1-21), AibValAibGluIleGlnLeuNleHisGlnHarAlaLysTrpLeu-AlaSerValArgArtTyr] (H-[Aib]V[Aib]EIQL[Nle]HQ[hArg]AKWLASVRRY-NH2) | 284 ± 76 pmole/well | 17 ± 2 nM | 300 ± 30 pmole/well | < 2 fold | effectively inhibited the binding | 240 ± 20 pmole/well |  |  |  |  | 
[Ala^3,Gln^10,Har^11]PTH(1-11)amide [[M]PTH(1-11)] |  |  |  |  |  |  | −2.1 | −9.9 | 35% | 7.5% | 3000 nM
[Ala^3,Gln^10]PTH(1-10) (SVAEIQLMHQ-NH2; UniProt P01270 32-41, looked up, variant S3A N10Q) |  |  |  |  |  |  |  |  |  |  | ~800000 nM
